Patent US20080280879A1, “SUBSTITUTED HETEROCYCLIC DERIVATIVES AND THEIR PHARMACEUTICAL USE AND COMPOSITIONS” (priority 2007, published 2008)
In brackets after ≈: the same amount, converted by molar mass.

Experiments:
Type in all cases: cell-based, Staphylococcus aureus
Staph aureus 1031 [1] = experiment: MIC, microtiter broth dilution (CLSI M7-A7), Assay 2, Table 12 column F, no serum; settings: for MIC: Staphylococcus aureus, 1031, Staph aureus 1031, Assay 2, no serum
Experimental: (§1) The assays described herein include a panel of bacterial isolates of Staphylococcus aureus. Assay 1 comprises the strains noted in Columns A through E, and Assay 2 comprises the strains noted in Columns F through H. The assays are performed in microtiter trays according to Methods for Dilution Antimicrobial Susceptibility Tests for Bacteria that Grow Aerobically; Approved Standard-7th edition (M7-A7) and interpreted according to the Performance Standards for Antimicrobial Susceptibility Testing; 16th Informational Supplement (M100-S16) published by Clinical Laboratory Standards Institute (CLSI). The antibacterial activity is presented in the form of a minimum inhibitory concentration (MIC) value in μg/ml format. The MIC value represents the lowest concentration of drug measured which prevented macroscopically visible growth under the conditions and specific doses tested. The compounds were initially dissolved in DMSO as 30 mM stocks and diluted accordingly to adjust to a concentration of 10 mg/ml or the compounds were dissolved in DMSO at a concentration of 10 mg/ml. For assessment of activity in the presence of human serum, S. aureus 1146 and S. aureus 1031 were inoculated into Mueller-Hinton Broth with 50% pooled inactivated human serum. In some cases, compounds were tested more than once in a particular assay. Where noted, the MIC value shown in Table 12 represents the geometric mean of the data from multiple runs.
(§2) It should be understood that the data in columns A-H represents MIC data in μg/ml and the notation “<=” means ‘less than or equal to’.

Staph aureus 1031 [2] = experiment: MIC in Mueller-Hinton Broth with 50% pooled inactivated human serum, Assay 2, Table 12 column G; settings: Staphylococcus aureus, 1031, Staph aureus 1031, Assay 2, 50% human serum
Experimental: as §1, §2

Staph aureus 2810 = experiment: MIC, microtiter broth dilution (CLSI M7-A7), Assay 2, Table 12 column H, no serum; settings: for MIC: Staphylococcus aureus, 2810, Staph aureus 2810, Assay 2, no serum
Experimental: as §1, §2

Staph aureus 1095 MRSA = experiment: MIC, microtiter broth dilution (CLSI M7-A7), Assay 1, Table 12 column A, no serum; settings: Assay 1, no serum
In short: (§3)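 MIC values in μg/ml, taken as lowest drug concentration without macroscopically visible growth, geometric mean where run repeatedly. For serum-shifted testing, strains grew in Mueller-Hinton Broth plus 50% pooled inactivated human serum; otherwise CLSI M7-A7 microtiter dilution, M100-S16 interpretation.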

Staph aureus 1146 [3] = experiment: MIC, microtiter broth dilution (CLSI M7-A7), Assay 1, Table 12 column B, no serum; settings: Staph aureus 1146, Assay 1, no serum
In short: as §3

Staph aureus 1146 [4] = experiment: MIC in Mueller-Hinton Broth with 50% pooled inactivated human serum, Assay 1, Table 12; settings: Staph aureus 1146, Assay 1, 50% human serum
In short: as §3

Staph aureus 2811 = experiment: MIC, microtiter broth dilution (CLSI M7-A7), Assay 1, Table 12 column D, no serum; settings: Staph aureus 2811, Assay 1, no serum
In short: as §3

Staph aureus 2812 = experiment: MIC, microtiter broth dilution (CLSI M7-A7), Assay 1, Table 12 column E, no serum; settings: Staph aureus 2812, Assay 1, no serum
In short: as §3

| SMILES | MIC (Staph aureus 1031 [1]) [µg/mL] | MIC (Staph aureus 1031 [2]) [µg/mL] | MIC (Staph aureus 2810) [µg/mL] | further results |
| --- | --- | --- | --- | --- |
| COc1ccc2nccc(C(O)CC[C@@H]3CCN(C4Cc5ccc(Cl)cc5C4)C[C@@H]3C(=O)O)c2c1 (stereo partly drawn) [Example 80, (3R,4R)-1-(5-chloro-2,3-dihydro-1H-inden-2-yl)-4-(3-hydroxy-3-(6-methoxyquinolin-4-yl)propyl)piperidine-3-carboxylic acid] | 1 (≈ 2.02 µM) | > 64 | 1 (≈ 2.02 µM) | – |
| COc1ccc2nccc(C(O)CC[C@@H]3CCN(C4Cc5cccc(Br)c5C4)C[C@@H]3C(=O)O)c2c1 (stereo partly drawn) [Example 81, (3R,4R)-1-(4-bromo-2,3-dihydro-1H-inden-2-yl)-4-(3-hydroxy-3-(6-methoxyquinolin-4-yl)propyl)piperidine-3-carboxylic acid] | 4 (≈ 7.41 µM) | > 64 | 4 (≈ 7.41 µM) | – |
| COc1ccc2nccc([C@@H](O)CNC3(C(=O)O)CCCN(C4CC(c5ccccc5)C4)CC3)c2n1 (stereo partly drawn) [Example 159, 4-{[(2R)-2-hydroxy-2-(6-methoxy-1,5-naphthyridin-4-yl)ethyl]amino}1-(3-phenylcyclobutyl)azepane-4-carboxylic acid] | 4 (≈ 8.15 µM) | 16 (≈ 32.6 µM) | 4 (≈ 8.15 µM) | – |
| COc1ccc2nccc([C@@H](O)CC[C@@H]3CCN(C4CCc5cc(F)ccc54)C[C@@H]3C(=O)O)c2c1 (single isomer, unassigned) [Example 75] | > 64 | > 64 | > 64 | – |
| COc1ccc2nccc(C(O)CC[C@@H]3CCN(CC4CCc5nc(C(C)C)ncc5C4)C[C@@H]3C(=O)O)c2c1 (stereo partly drawn) [Example 116, (3R,4R)-4-[3-hydroxy-3-(6-methoxyquinolin-4-yl)propyl]-1-[(2-isopropyl-5,6,7,8-tetrahydroquinazolin-6-yl)methyl]piperidine-3-carboxylic acid] | > 64 | > 64 | > 64 | – |
| COc1ccc2nccc(C(O)CC[C@@H]3CCN(C4CC(c5ccccc5)C4)C[C@@H]3C(=O)O)c2c1 (single isomer, unassigned) [Example 1] | – | – | – | MIC, column A (Staph aureus 1095 MRSA): <=.0992 μg/ml; MIC, column B (Staph aureus 1146 [3]): <=.0787 μg/ml; MIC, column C (Staph aureus 1146 [4]): 0.3969 µg/mL (≈ 0.836 µM); MIC, column D (Staph aureus 2811): <=.0787 μg/ml; MIC, column E (Staph aureus 2812): <=.0992 μg/ml; MIC, column F (Staph aureus 1031 [1]; Staph aureus 1031, Assay 2, no serum): <=.0884 μg/ml; MIC, column H (Staph aureus 2810; Staph aureus 2810, Assay 2, no serum): 0.125 µg/mL (≈ 0.263 µM) |
| COC(=O)[C@H]1CN(C2CN(c3ccccn3)C2)CC[C@H]1CCC(O)c1ccnc2ccc(OC)cc12 (stereo partly drawn) [Example 124, methyl (3R,4R)-4-[3-hydroxy-3-(6-methoxyquinolin-4-yl)propyl]-1-(1-pyridin-2-ylazetidin-3-yl)piperidine-3-carboxylate] | > 64 | > 64 | > 64 | – |
| COc1ccc2nccc(C(O)CC[C@@H]3CCN(CC4CCc5nc(-c6cnccn6)ncc5C4)C[C@@H]3C(=O)O)c2c1 (stereo partly drawn) [Example 119, (3R,4R)-4-[3-hydroxy-3-(6-methoxyquinolin-4-yl)propyl]-1-[(2-pyrazin-2-yl-5,6,7,8-tetrahydroquinazolin-6-yl)methyl]piperidine-3-carboxylic acid] | > 64 | > 64 | > 64 | – |
| COC(=O)[C@H]1CN(C2CCCc3ccccc32)CC[C@H]1CCC(O)c1ccnc2ccc(OC)cc12 (stereo partly drawn) [Example 76, (3R,4R)-methyl 4-(3-hydroxy-3-(6-methoxyquinolin-4-yl)propyl)-1-(1,2,3,4-tetrahydronaphthalen-1-yl)piperidine-3-carboxylate] | > 64 | > 64 | > 64 | – |
